Measurements from patent US8192962B2, “Processes for detecting toxic substances” (Daikin Industries, Ltd., priority 2001, dated 2012).

Test system: DNA repair protein genes
Assay: DNA chip mRNA expression in yeast, DNA repair protein genes (Table 3)
Assay type: cell-based, Saccharomyces cerevisiae S288C
Conditions: incubated two hours, concentrations as in the 1st table
In short: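 Chemical exposure: 2 h, log-phase S. cerevisiae S288C, YPD, 25° C., dose set to inhibit growth without death. Profiling: mRNA labeled by reverse transcription with Cy3- or Cy5-dUTP, hybridized to whole-genome array. Output: fluorescence ratio against untreated culture.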

[Cl][Pb][Cl] [(4), PbCl2]
The level of expressed mRNA in the presence of chemical substance/The level of expressed mRNA in the absence of chemical substance (yeast gene YAL015C): 1.9
The level of expressed mRNA in the presence of chemical substance/The level of expressed mRNA in the absence of chemical substance (yeast gene YAR007C): 0.5
The level of expressed mRNA in the presence of chemical substance/The level of expressed mRNA in the absence of chemical substance (yeast gene YBL019W): 1.2
The level of expressed mRNA in the presence of chemical substance/The level of expressed mRNA in the absence of chemical substance (yeast gene YBR073W): 0.7
The level of expressed mRNA in the presence of chemical substance/The level of expressed mRNA in the absence of chemical substance (yeast gene YBR272C): 1.0
The level of expressed mRNA in the presence of chemical substance/The level of expressed mRNA in the absence of chemical substance (yeast gene YCR014C): 0.6
The level of expressed mRNA in the presence of chemical substance/The level of expressed mRNA in the absence of chemical substance (yeast gene YDL017W): 1.3
The level of expressed mRNA in the presence of chemical substance/The level of expressed mRNA in the absence of chemical substance (yeast gene YDL059C): 1.7
The level of expressed mRNA in the presence of chemical substance/The level of expressed mRNA in the absence of chemical substance (yeast gene YDL200C): 1.8
The level of expressed mRNA in the presence of chemical substance/The level of expressed mRNA in the absence of chemical substance (yeast gene YDR054C): 1.4
The level of expressed mRNA in the presence of chemical substance/The level of expressed mRNA in the absence of chemical substance (yeast gene YDR369C): 1.1
The level of expressed mRNA in the presence of chemical substance/The level of expressed mRNA in the absence of chemical substance (yeast gene YEL019C): 0.7
The level of expressed mRNA in the presence of chemical substance/The level of expressed mRNA in the absence of chemical substance (yeast gene YEL037C): 1.0
The level of expressed mRNA in the presence of chemical substance/The level of expressed mRNA in the absence of chemical substance (yeast gene YER162C): 1.1
The level of expressed mRNA in the presence of chemical substance/The level of expressed mRNA in the absence of chemical substance (yeast gene YFL014W): 11.0
The level of expressed mRNA in the presence of chemical substance/The level of expressed mRNA in the absence of chemical substance (yeast gene YGL058W): 0.7
The level of expressed mRNA in the presence of chemical substance/The level of expressed mRNA in the absence of chemical substance (yeast gene YGL091C): 1.7
The level of expressed mRNA in the presence of chemical substance/The level of expressed mRNA in the absence of chemical substance (yeast gene YGL127C): 1.7
The level of expressed mRNA in the presence of chemical substance/The level of expressed mRNA in the absence of chemical substance (yeast gene YGL163C): 4.3
The level of expressed mRNA in the presence of chemical substance/The level of expressed mRNA in the absence of chemical substance (yeast gene YGL249W): 0.8
The level of expressed mRNA in the presence of chemical substance/The level of expressed mRNA in the absence of chemical substance (yeast gene YGR180C): 1.0
The level of expressed mRNA in the presence of chemical substance/The level of expressed mRNA in the absence of chemical substance (yeast gene YGR231C): 1.0
The level of expressed mRNA in the presence of chemical substance/The level of expressed mRNA in the absence of chemical substance (yeast gene YGR258C): 0.7
The level of expressed mRNA in the presence of chemical substance/The level of expressed mRNA in the absence of chemical substance (yeast gene YHR164C): 0.7
The level of expressed mRNA in the presence of chemical substance/The level of expressed mRNA in the absence of chemical substance (yeast gene YIL036W): 1.8
The level of expressed mRNA in the presence of chemical substance/The level of expressed mRNA in the absence of chemical substance (yeast gene YIL072W): 2.6
The level of expressed mRNA in the presence of chemical substance/The level of expressed mRNA in the absence of chemical substance (yeast gene YIL143C): 0.9
The level of expressed mRNA in the presence of chemical substance/The level of expressed mRNA in the absence of chemical substance (yeast gene YIL153W): 2.9
The level of expressed mRNA in the presence of chemical substance/The level of expressed mRNA in the absence of chemical substance (yeast gene YIR002C): 0.6
The level of expressed mRNA in the presence of chemical substance/The level of expressed mRNA in the absence of chemical substance (yeast gene YJL026W): 1.0
The level of expressed mRNA in the presence of chemical substance/The level of expressed mRNA in the absence of chemical substance (yeast gene YJR046W): 1.5
The level of expressed mRNA in the presence of chemical substance/The level of expressed mRNA in the absence of chemical substance (yeast gene YJR052W): 1.0
The level of expressed mRNA in the presence of chemical substance/The level of expressed mRNA in the absence of chemical substance (yeast gene YKL145W): 1.0
The level of expressed mRNA in the presence of chemical substance/The level of expressed mRNA in the absence of chemical substance (yeast gene YLR103C): 0.4
The level of expressed mRNA in the presence of chemical substance/The level of expressed mRNA in the absence of chemical substance (yeast gene YLR233C): 2.0
The level of expressed mRNA in the presence of chemical substance/The level of expressed mRNA in the absence of chemical substance (yeast gene YLR288C): 1.8
The level of expressed mRNA in the presence of chemical substance/The level of expressed mRNA in the absence of chemical substance (yeast gene YML032C): 0.7
The level of expressed mRNA in the presence of chemical substance/The level of expressed mRNA in the absence of chemical substance (yeast gene YML058W): 1.9
The level of expressed mRNA in the presence of chemical substance/The level of expressed mRNA in the absence of chemical substance (yeast gene YMR035W): 1.7
The level of expressed mRNA in the presence of chemical substance/The level of expressed mRNA in the absence of chemical substance (yeast gene YMR072W): 1.0
The level of expressed mRNA in the presence of chemical substance/The level of expressed mRNA in the absence of chemical substance (yeast gene YMR096W): 0.8
The level of expressed mRNA in the presence of chemical substance/The level of expressed mRNA in the absence of chemical substance (yeast gene YMR284W): 2.0
The level of expressed mRNA in the presence of chemical substance/The level of expressed mRNA in the absence of chemical substance (yeast gene YNL213C): 1.5
The level of expressed mRNA in the presence of chemical substance/The level of expressed mRNA in the absence of chemical substance (yeast gene YNL250W): 1.2
The level of expressed mRNA in the presence of chemical substance/The level of expressed mRNA in the absence of chemical substance (yeast gene YNL261W): 1.3
The level of expressed mRNA in the presence of chemical substance/The level of expressed mRNA in the absence of chemical substance (yeast gene YNL312W): 0.7
The level of expressed mRNA in the presence of chemical substance/The level of expressed mRNA in the absence of chemical substance (yeast gene YOL043C): 1.7
The level of expressed mRNA in the presence of chemical substance/The level of expressed mRNA in the absence of chemical substance (yeast gene YOR005C): 0.8
The level of expressed mRNA in the presence of chemical substance/The level of expressed mRNA in the absence of chemical substance (yeast gene YOR386W): 1.5
The level of expressed mRNA in the presence of chemical substance/The level of expressed mRNA in the absence of chemical substance (yeast gene YPL022W): 1.2
The level of expressed mRNA in the presence of chemical substance/The level of expressed mRNA in the absence of chemical substance (yeast gene YPL164C): 1.0
The level of expressed mRNA in the presence of chemical substance/The level of expressed mRNA in the absence of chemical substance (yeast gene YPL194W): 1.1
The level of expressed mRNA in the presence of chemical substance/The level of expressed mRNA in the absence of chemical substance (yeast gene YPR025C): 0.6
